Experiments:
Type in all cases: physicochemical
[1] = TGA (Thermal Gravimetric Analysis) weight loss; conditions: for TGA weight loss (in words): room temperature to 120° C.
Protocol: TGA (Thermal Gravimetric Analysis): Samples of compounds (4˜6 mg) were weighed into the pan, and heated under nitrogen purge using a ramp rate of 20° C./min over the range of 30° C.˜350° C.

[2] = Solid stability at 40° C./0% RH (closed) and 40° C./75% RH (open), HPLC; conditions: for 0 day % remaining / 5 day % remaining / 10 day % remaining: solid
Protocol: Solid stability: 5 mg of 2a was weighed into scintillation vials sealed properly and stored at 40° C./0% RH(closed), 40° C./75% RH(open) under dark conditions to avoid the effect of light on stability. Samples were collected at day 0, 5 and 10 and analyzed by HPLC.
Solid stability: 5 mg of compound was weighed into vials sealed properly and stored at 40° C./0% RH (closed), 40° C./75% RH (open) under dark conditions to avoid the effect of light. Samples were analyzed by HPLC at days 0, 7, and 21.
Solid stability of compound 1a: 5 mg compound were accurately weighed into scintillation vials sealed properly and stored at 40° C./0% RH(closed), 40° C./75% RH(open) under dark condition to avoid the effect of light on stability. Samples should be collected at day 0, 5 and 10 days and analyzed by HPLC.

[3] = DVS (Dynamic Vapor Sorption) moisture sorption/desorption, hygroscopicity classification; conditions: 25 °C; for Change In Mass (%) - ref, Desorption / Change In Mass (%) - ref, Sorption / Change In Mass (%) - ref, Hysteresis: Cycle 1
Protocol: DVS (Dynamic Vapor Sorption): Around 10-20 mg of samples were used to test its moisture sorption/desorption profiles at 25° C. under 0%˜95%˜0% relative humidity (RH) cycle using dm/dt: 0.01%/min equilibrium and a measurement step of 5% RH.
Hygroscopicity Classification: Typical %-moisture gain as a function of increased RH was determined by DVS. Samples went through a dynamic test isothermally at 25° C. The test was divided into 2 processes, one was absorption process, the other was desorption process. RH ranged from 0% to 95% with 5% RH for each step, and when dm/dt<=0.01%, it was assumed the water sorption/desorption equilibrium is reached.

[4] = Solution stability in 0.1 N HCl, pH 4.5 buffer and pH 6.8 buffer at 25° C. and 37° C., HPLC; conditions: summary of the Examples
Protocol: Solution stability: A stock solution of compound (1.0 mg/mL) in MeOH was diluted with 0.1 N HCl, pH 4.5 buffer (acetate) and pH 6.8 buffer to reach constant ionic strength of 0.15 M and the same final concentration (50 μg/mL, 40% MeOH).
A stock solution of 1b and 3b (1.0 mg/mL) in MeOH was diluted with pH 6.8 buffer to reach constant ionic strength of 0.15M and the same final concentration (25 μg/mL, 40% […]).
The solutions were stored at 25° C. and 37° C.

SMILES: COc1ccc2c(c1)CCN1Cc3c(ccc(OC)c3OS(=O)(=O)c3cccc(F)c3)C[C@H]21 [Compound 2a]
- Temperature until which there is no weight loss ([1]; DSC and TGA): about 150 °C
- TGA weight loss (in words) [1]: almost no weight loss
- TGA weight loss (in words) ([1]; listed as Hydrochloride salt of compound 1a): almost no weight loss
- Solid-state stability (HPLC) ([2]; 40° C./0% RH (closed) and 40° C./75% RH (open), dark, up to 10 days): substantially stable
- 0 day % remaining ([2]; 40° C. (0% RH, closed)): 99.65%
- 5 day % remaining ([2]; 40° C. (0% RH, closed)): 101.65%
- 10 day % remaining ([2]; 40° C. (0% RH, closed)): 100.85%
- 0 day % remaining ([2]; 40° C./75% RH (open)): 99.65%
- 5 day % remaining ([2]; 40° C./75% RH (open)): 100.66%
- 10 day % remaining ([2]; 40° C./75% RH (open)): 101.31%
- Hygroscopicity classification by DVS [3]: non-hygroscopic
- Change In Mass (%) - ref, Desorption ([3]; Target RH 0.0 %): −0.00505%
- Change In Mass (%) - ref, Sorption ([3]; Target RH 0.0 %): 0.00011%
- Change In Mass (%) - ref, Desorption ([3]; Target RH 5.0 %): −0.0028%
- Change In Mass (%) - ref, Hysteresis ([3]; Target RH 5.0 %): −0.00426%
- Change In Mass (%) - ref, Sorption ([3]; Target RH 5.0 %): 0.00146%
- Change In Mass (%) - ref, Desorption ([3]; Target RH 10.0 %): −0.00101%
- Change In Mass (%) - ref, Hysteresis ([3]; Target RH 10.0 %): −0.0046%
- Change In Mass (%) - ref, Sorption ([3]; Target RH 10.0 %): 0.00359%
- Change In Mass (%) - ref, Desorption ([3]; Target RH 15.0 %): 0.00000%
- Change In Mass (%) - ref, Hysteresis ([3]; Target RH 15.0 %): −0.00527%
- Change In Mass (%) - ref, Sorption ([3]; Target RH 15.0 %): 0.00527%
- Change In Mass (%) - ref, Desorption ([3]; Target RH 20.0 %): 0.00123%
- Change In Mass (%) - ref, Hysteresis ([3]; Target RH 20.0 %): −0.0055%
- Change In Mass (%) - ref, Sorption ([3]; Target RH 20.0 %): 0.00673%
- Change In Mass (%) - ref, Desorption ([3]; Target RH 25.0 %): 0.00247%
- Change In Mass (%) - ref, Hysteresis ([3]; Target RH 25.0 %): −0.00505%
- Change In Mass (%) - ref, Sorption ([3]; Target RH 25.0 %): 0.00752%
- Change In Mass (%) - ref, Desorption ([3]; Target RH 30.0 %): 0.00292%
- Change In Mass (%) - ref, Hysteresis ([3]; Target RH 30.0 %): −0.00527%
- Change In Mass (%) - ref, Sorption ([3]; Target RH 30.0 %): 0.00819%
- Change In Mass (%) - ref, Desorption ([3]; Target RH 35.0 %): 0.00393%
- Change In Mass (%) - ref, Hysteresis ([3]; Target RH 35.0 %): −0.00449%
- Change In Mass (%) - ref, Sorption ([3]; Target RH 35.0 %): 0.00841%
- Change In Mass (%) - ref, Desorption ([3]; Target RH 40.0 %): 0.0055%
- Change In Mass (%) - ref, Hysteresis ([3]; Target RH 40.0 %): −0.00314%
- Change In Mass (%) - ref, Sorption ([3]; Target RH 40.0 %): 0.00864%
- Change In Mass (%) - ref, Desorption ([3]; Target RH 45.0 %): 0.00673%
- Change In Mass (%) - ref, Hysteresis ([3]; Target RH 45.0 %): −0.00202%
- Change In Mass (%) - ref, Sorption ([3]; Target RH 45.0 %): 0.00875%
- Change In Mass (%) - ref, Desorption ([3]; Target RH 50.0 %): 0.00763%
- Change In Mass (%) - ref, Hysteresis ([3]; Target RH 50.0 %): −0.00191%
- Change In Mass (%) - ref, Sorption ([3]; Target RH 50.0 %): 0.00954%
- Change In Mass (%) - ref, Desorption ([3]; Target RH 55.0 %): 0.00853%
- Change In Mass (%) - ref, Hysteresis ([3]; Target RH 55.0 %): −0.00123%
- Change In Mass (%) - ref, Sorption ([3]; Target RH 55.0 %): 0.00976%
- Change In Mass (%) - ref, Desorption ([3]; Target RH 60.0 %): 0.00909%
- Change In Mass (%) - ref, Hysteresis ([3]; Target RH 60.0 %): −0.0009%
- Change In Mass (%) - ref, Sorption ([3]; Target RH 60.0 %): 0.00998%
- Change In Mass (%) - ref, Desorption ([3]; Target RH 65.0 %): 0.00954%
- Change In Mass (%) - ref, Hysteresis ([3]; Target RH 65.0 %): −0.00056%
- Change In Mass (%) - ref, Sorption ([3]; Target RH 65.0 %): 0.0101%
- Change In Mass (%) - ref, Desorption ([3]; Target RH 70.0 %): 0.01066%
- Change In Mass (%) - ref, Hysteresis ([3]; Target RH 70.0 %): 0.00000%
- Change In Mass (%) - ref, Sorption ([3]; Target RH 70.0 %): 0.01066%
- Change In Mass (%) - ref, Desorption ([3]; Target RH 75.0 %): 0.01234%
- Change In Mass (%) - ref, Hysteresis ([3]; Target RH 75.0 %): 0.00056%
- Change In Mass (%) - ref, Sorption ([3]; Target RH 75.0 %): 0.01178%
- Change In Mass (%) - ref, Desorption ([3]; Target RH 80.0 %): 0.01324%
- Change In Mass (%) - ref, Hysteresis ([3]; Target RH 80.0 %): 0.00034%
- Change In Mass (%) - ref, Sorption ([3]; Target RH 80.0 %): 0.0129%
- Change In Mass (%) - ref, Desorption ([3]; Target RH 85.0 %): 0.01481%
- Change In Mass (%) - ref, Hysteresis ([3]; Target RH 85.0 %): 0.0009%
- Change In Mass (%) - ref, Sorption ([3]; Target RH 85.0 %): 0.01391%
- Change In Mass (%) - ref, Desorption ([3]; Target RH 90.0 %): 0.01773%
- Change In Mass (%) - ref, Hysteresis ([3]; Target RH 90.0 %): 0.00146%
- Change In Mass (%) - ref, Sorption ([3]; Target RH 90.0 %): 0.01627%
- Change In Mass (%) - ref, Desorption ([3]; Target RH 95.0 %): 0.02076%
- Change In Mass (%) - ref, Sorption ([3]; Target RH 95.0 %): 0.02076%
- moisture picked up (DVS) ([3]; at 95% RH): about 0.02%
- Stability compared with other polymorphs (summary) [4]: most stable of the polymorphs

Source: patent US20230279002A1, “Polymorphs of Crystalline Forms of 3,10-dimethoxy-5,8,13,13a-tetrahydro-6H-isoquinolino[3,2-a]isoquinolin-9-yl 3-fluorobenzenesulfonate and Salts Thereof” (CVI Pharmaceuticals Limited, priority 2020, published 2023)
